System: duration of immobility (despair) in rodents
Assay: Forced Swimming Test (FST)
Assay type: in vivo
Conditions: male BALB mice, imipramine
Description: Rodents are placed individually into an transparent acrylic cuboid containing 15 cm (for the mice) or 30 cm (for the rats) of water at 24+1° C. for 6 minutes. The durations of struggling, active movement and immobility in the test is recorded by an automatic device. A 15 minutes pre-test was performed 20-24 hours prior to the test. The duration of immobility is used as a parameter of despair in the rodents.
160-250 g of male Wistar rats were purchased from NSC (National Science Council, Taipei Taiwan). The animals were placed at constant ambient temperature (25±1° C.) with food and water available and on a 12:12-h LD cycle (lights on at 06:00, off at 18:00.)
The FST test as mentioned herein was performed.

CN(C)CCCN1c2ccccc2CCc2ccccc21 [Imipramine]
duration of immobility (in words): reduction in the duration of immobility
